Experimental data reported in patent US20260226039A1, “INHIBITORS OF SOLVENT FRONT MUTATED RET KINASE” (Purdue Research Foundation, priority 2023, published 2026).
Where a chain is given by its changes, count along the chain named. ≈ marks a conversion by molar mass, not a printed value.

Tests used:
KIF5B-RET G810A = target: T1, KIF5B-RET G810A (Homo sapiens, UniProt P07949, G810A); assay: Cell viability assay (CellTiter-Glo) in BaF3 cells expressing KIF5B-RET G810A; type: cell-based; conditions: B/KR mutant cell line G810A; read-out: IC50 of RET mutants, G810A
T1 construct: KIF5B (fusion partner); expressed in transfected cells; host or cells: BaF3; the other entry of the earlier key: KIF5B (P33176, Kinesin-1 heavy chain)
T1 sequence (P07949 713-1063 G810A limits assumed): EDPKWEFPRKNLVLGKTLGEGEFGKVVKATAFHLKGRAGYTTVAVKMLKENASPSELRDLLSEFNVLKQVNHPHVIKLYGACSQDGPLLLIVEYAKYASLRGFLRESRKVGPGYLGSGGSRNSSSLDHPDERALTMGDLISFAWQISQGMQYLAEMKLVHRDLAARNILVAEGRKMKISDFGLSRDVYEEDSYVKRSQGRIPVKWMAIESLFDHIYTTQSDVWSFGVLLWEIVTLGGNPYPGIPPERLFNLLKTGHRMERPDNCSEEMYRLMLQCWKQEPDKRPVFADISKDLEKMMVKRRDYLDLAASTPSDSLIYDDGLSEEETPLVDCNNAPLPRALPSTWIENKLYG
Excerpt: (§1) KIF5B-RET G810D and G810V mutations were generated by PCR-based mutagenesis with primers containing the desired mutations. […] Drug screening and ICso data of BaF3/KR and mutation cells were from 2 or more experiments performed in 3 technical replicates.

KIF5B-RET G810S = target: T2, KIF5B-RET G810S (Homo sapiens, UniProt P07949, G810S); assay: Cell viability assay (CellTiter-Glo) in BaF3 cells expressing KIF5B-RET G810S; type: cell-based; conditions: B/KR mutant cell line G810S; read-out: IC50 of RET mutants, G810S
T2 construct: KIF5B (fusion partner); expressed in transfected cells; host or cells: BaF3; the other entry of the earlier key: KIF5B (P33176, Kinesin-1 heavy chain)
T2 sequence (P07949 713-1063 G810S limits assumed): T1 sequence (P07949 713-1063 G810A limits assumed) with A98S
Excerpt: as §1

KIF5B-RET G810C = target: T3, KIF5B-RET G810C (Homo sapiens, UniProt P07949, G810C); assay: Cell viability assay (CellTiter-Glo) in BaF3 cells expressing KIF5B-RET G810C; type: cell-based; conditions: B/KR mutant cell line G810C; read-out: IC50 of RET mutants, G810C
T3 construct: KIF5B (fusion partner); expressed in transfected cells; host or cells: BaF3; the other entry of the earlier key: KIF5B (P33176, Kinesin-1 heavy chain)
T3 sequence (P07949 713-1063 G810C limits assumed): T1 sequence (P07949 713-1063 G810A limits assumed) with A98C
Excerpt: as §1

KIF5B-RET G810R = target: T4, KIF5B-RET G810R (Homo sapiens, UniProt P07949, G810R); assay: Cell viability assay (CellTiter-Glo) in BaF3 cells expressing KIF5B-RET G810R; type: cell-based; conditions: B/KR mutant cell line G810R; read-out: IC50 of RET mutants, G810R
T4 construct: KIF5B (fusion partner); expressed in transfected cells; host or cells: BaF3; the other entry of the earlier key: KIF5B (P33176, Kinesin-1 heavy chain)
T4 sequence (P07949 713-1063 G810R limits assumed): T1 sequence (P07949 713-1063 G810A limits assumed) with A98R
Excerpt: as §1

KIF5B-RET V804M = target: T5, KIF5B-RET V804M (Homo sapiens, UniProt P07949, V804M); assay: Cell viability assay (CellTiter-Glo) in BaF3 cells expressing KIF5B-RET V804M; type: cell-based; conditions: B/KR mutant cell line V804M; read-out: IC50 of RET mutants, V804M
T5 construct: KIF5B (fusion partner); expressed in transfected cells; host or cells: BaF3; the other entry of the earlier key: KIF5B (P33176, Kinesin-1 heavy chain)
T5 sequence (P07949 713-1063 V804M limits assumed): T1 sequence (P07949 713-1063 G810A limits assumed) with V92M, A98G
Excerpt: as §1

KIF5B-RET WT = target: T6, KIF5B-RET WT (Homo sapiens, UniProt P07949); assay: Cell viability assay (CellTiter-Glo) in BaF3 cells expressing KIF5B-RET (B/KR), WT; type: cell-based; conditions: B/KR cell line, read-out: IC50 of RET mutants, WT
T6 construct: KIF5B (fusion partner); expressed in transfected cells; host or cells: BaF3; the other entry of the earlier key: KIF5B (P33176, Kinesin-1 heavy chain)
T6 sequence (P07949 with tags, fused parts or gaps): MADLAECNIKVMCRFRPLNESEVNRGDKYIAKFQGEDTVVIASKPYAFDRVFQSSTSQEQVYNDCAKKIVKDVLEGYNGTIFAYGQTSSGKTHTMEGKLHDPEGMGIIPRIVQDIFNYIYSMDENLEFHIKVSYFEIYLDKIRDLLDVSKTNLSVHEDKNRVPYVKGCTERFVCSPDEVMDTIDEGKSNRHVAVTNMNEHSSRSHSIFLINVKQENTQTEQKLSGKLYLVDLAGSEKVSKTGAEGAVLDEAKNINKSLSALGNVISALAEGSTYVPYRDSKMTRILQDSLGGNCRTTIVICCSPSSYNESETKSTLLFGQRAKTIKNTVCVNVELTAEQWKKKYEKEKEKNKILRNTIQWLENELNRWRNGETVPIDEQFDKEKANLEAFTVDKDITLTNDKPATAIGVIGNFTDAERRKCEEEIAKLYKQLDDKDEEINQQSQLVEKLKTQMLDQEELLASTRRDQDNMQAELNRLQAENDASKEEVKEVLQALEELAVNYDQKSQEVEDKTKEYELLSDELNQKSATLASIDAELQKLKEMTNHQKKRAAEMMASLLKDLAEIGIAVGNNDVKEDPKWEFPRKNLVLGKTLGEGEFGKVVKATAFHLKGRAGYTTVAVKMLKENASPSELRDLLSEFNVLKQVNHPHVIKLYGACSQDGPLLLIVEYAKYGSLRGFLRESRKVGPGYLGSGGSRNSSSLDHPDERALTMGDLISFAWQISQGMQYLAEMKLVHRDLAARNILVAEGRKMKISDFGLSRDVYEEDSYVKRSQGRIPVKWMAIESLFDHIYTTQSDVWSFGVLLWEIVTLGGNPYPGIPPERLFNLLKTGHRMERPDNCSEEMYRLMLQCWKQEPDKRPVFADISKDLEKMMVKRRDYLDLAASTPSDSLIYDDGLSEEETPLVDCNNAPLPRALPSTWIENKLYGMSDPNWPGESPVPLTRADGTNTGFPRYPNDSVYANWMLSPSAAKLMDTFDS
Excerpt: as §1

KIF5B-RET G810V = target: T7, KIF5B-RET G810V (Homo sapiens, UniProt P07949, G810V); assay: Cell viability assay (CellTiter-Glo) in BaF3 cells expressing KIF5B-RET G810V; type: cell-based; conditions: B/KR mutant cell line G810V; read-out: IC50 of RET mutants, G810V
T7 construct: KIF5B (fusion partner); expressed in transfected cells; host or cells: BaF3 (lentiviral vector); the other entry of the earlier key: KIF5B (P33176, Kinesin-1 heavy chain)
T7 sequence (P07949 713-1063 G810V limits assumed): T1 sequence (P07949 713-1063 G810A limits assumed) with A98V
Excerpt: as §1

KIF5B-RET G810D = target: T8, KIF5B-RET G810D (Homo sapiens, UniProt P07949, G810D); assay: Cell viability assay (CellTiter-Glo) in BaF3 cells expressing KIF5B-RET G810D; type: cell-based; conditions: B/KR mutant cell line G810D; read-out: IC50 of RET mutants, G810D
T8 construct: KIF5B (fusion partner); expressed in transfected cells; host or cells: BaF3 (lentiviral vector); the other entry of the earlier key: KIF5B (P33176, Kinesin-1 heavy chain)
T8 sequence (P07949 713-1063 G810D limits assumed): T1 sequence (P07949 713-1063 G810A limits assumed) with A98D
Excerpt: as §1

Solubility at pH 6.8 = type: physicochemical
B/KR(G810C) CDX tumors = assay: In vivo activity on B/KR(G810C) CDX tumors in mice; conditions: daily oral gavage
Experimental: Mice bearing B/KR(G810C) CDX tumors were treated with the test compounds at the indicated doses by daily oral gavage. Tumor dimensions were measured with a caliper, and tumor sizes were estimated using the Formula: tumor size=(Length×width×width)/2. The data shown are the mean±sd.
BaF3/KR(G810C) cells were tested free of 20 mouse pathogens (IDEXX, Columbia, MO) and mycoplasma. Cells (1×10^7 cells/0.1 ml/each) were inoculated subcutaneously into the right flank of approximately 5-week old female SHO mice (Charles River, Wilmington, MA). After tumor formation, mice (6 mice/group) were treated with vehicle or test compounds at the indicated doses by oral gavage once a day. Tumor size and animal body weight were measured as described. Statistical analysis was performed using the unpaired Mann-Whitney test.

hERG = hERG (Homo sapiens, UniProt Q12809); assay: hERG inhibition; type: biochemical
hERG, sequence (Q12809 whole entry): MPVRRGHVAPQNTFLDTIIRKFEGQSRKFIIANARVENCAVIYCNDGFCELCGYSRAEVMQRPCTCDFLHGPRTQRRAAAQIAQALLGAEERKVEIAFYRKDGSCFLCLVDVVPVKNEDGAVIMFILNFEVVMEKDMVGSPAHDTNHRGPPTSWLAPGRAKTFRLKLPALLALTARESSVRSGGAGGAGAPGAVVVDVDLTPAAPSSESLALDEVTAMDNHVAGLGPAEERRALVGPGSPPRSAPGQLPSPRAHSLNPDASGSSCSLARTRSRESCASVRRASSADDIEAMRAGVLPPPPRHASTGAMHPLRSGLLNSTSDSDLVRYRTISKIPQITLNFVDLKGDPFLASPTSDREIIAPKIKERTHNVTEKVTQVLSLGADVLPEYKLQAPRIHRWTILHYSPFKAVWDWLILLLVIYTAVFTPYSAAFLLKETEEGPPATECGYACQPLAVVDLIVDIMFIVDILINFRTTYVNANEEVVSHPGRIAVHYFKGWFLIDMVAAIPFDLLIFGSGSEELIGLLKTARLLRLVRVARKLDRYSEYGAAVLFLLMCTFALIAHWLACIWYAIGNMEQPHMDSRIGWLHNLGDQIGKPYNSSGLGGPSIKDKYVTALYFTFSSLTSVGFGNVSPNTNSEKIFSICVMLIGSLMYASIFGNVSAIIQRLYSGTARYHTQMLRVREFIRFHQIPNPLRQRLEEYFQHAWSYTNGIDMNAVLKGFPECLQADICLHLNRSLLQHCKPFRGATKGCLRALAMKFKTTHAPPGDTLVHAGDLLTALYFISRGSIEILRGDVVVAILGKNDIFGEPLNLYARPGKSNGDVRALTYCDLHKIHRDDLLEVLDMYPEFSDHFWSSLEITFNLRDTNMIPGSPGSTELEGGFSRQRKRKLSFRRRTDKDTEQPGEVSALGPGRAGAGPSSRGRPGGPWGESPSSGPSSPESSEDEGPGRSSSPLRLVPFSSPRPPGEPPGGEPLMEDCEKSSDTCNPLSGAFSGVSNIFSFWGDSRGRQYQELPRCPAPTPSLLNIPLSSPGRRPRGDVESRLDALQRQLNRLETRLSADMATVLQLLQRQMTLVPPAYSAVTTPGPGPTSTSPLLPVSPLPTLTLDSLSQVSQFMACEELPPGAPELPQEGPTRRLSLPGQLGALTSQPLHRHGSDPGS

[1] = Protein binding (human serum); type: in vitro ADME

Compound | IC50 (KIF5B-RET G810A) [nM] | IC50 (KIF5B-RET G810S) [nM] | IC50 (KIF5B-RET G810C) [nM] | IC50 (KIF5B-RET G810R) [nM] | IC50 (KIF5B-RET V804M) [nM] | IC50 (KIF5B-RET WT) [nM] | IC50 (KIF5B-RET G810V) [nM] | IC50 (KIF5B-RET G810D) [nM] | solubility (Solubility at pH 6.8) [µM] | effect on B/KR(G810C) CDX tumors (B/KR(G810C) CDX tumors; 25 mg/Kg) | IC50 (hERG) [nM] | protein-bound [1] [%] | effect on B/KR(G810C) CDX tumors (B/KR(G810C) CDX tumors; 50 mg/Kg)
CN1CCN(Cc2ccc(NC(=O)c3cncc(C#Cc4cnc5[nH]ncc5c4)c3)cc2C(F)(F)F)CC1 [Example 1, 5-((1H-Pyrazolo[3,4-b]pyridin-5-yl)ethynyl)-N-(4-((4-methylpiperazin-1-yl)methyl)-3-(trifluoromethyl)phenyl)nicotinamide] | 1.56 ± 0.07 | 7.76 ± 0.33 | 11.4 ± 0.32 | 24.5 ± 0.79 | 14.1 ± 0.54 | 1.7 ± 0.08 | 4.1 ± 0.3 | 5.21 ± 0.36 | – | – | – | – | –
CN1CCN(Cc2ccc(NC(=O)c3cncc(C#Cc4cnc(N)nc4)c3)cc2C(F)(F)F)CC1 [Example 2, 5-((2-Aminopyrimidin-5-yl)ethynyl)-N-(4-((4-methylpiperazin-1-yl)methyl)-3-(trifluoromethyl)phenyl)nicotinamide] | 3.89 ± 0.07 | 8.02 ± 0.21 | 12.2 ± 0.63 | 46.8 ± 1.11 | 20.3 ± 1.09 | 3.49 ± 0.16 | 8.34 ± 0.36 | 1.47 ± 0.05 | 117 (≈ 58 µg/mL) | tumor regression | 23000 | 94 | –
CN1CCN(Cc2ccc(NC(=O)c3cncc(C#Cc4cnc(N)c5ncccc45)c3)cc2C(F)(F)F)CC1 [HSN608, reference compound] | – | – | – | – | – | – | – | – | 0.07 (≈ 0.0382 µg/mL) | – | – | 99 | tumor regression
